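Grown in 96-well plates, cells were treated for 48 hours with each compound at five concentrations. Insufficient inhibition: endpoint recorded as highest concentration tested. GI50 = concentration required for 50% inhibition of growth.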 Calls of active or inactive are those of the source. Rule as the data show it: active = GI50 up to about 1.1 µM and inactive = higher.
What was measured:
Experiment in all cases: NCI-60 cell line screen, 48 h
786-0 = tested on: 786-0
A498 = tested on: A498
A549 = tested on: A549
ACHN = tested on: ACHN
CCRF-CEM = tested on: CCRF-CEM
COLO 205 = tested on: COLO 205
DU-145 = tested on: DU-145
EKVX = tested on: EKVX
HCC 2998 = tested on: HCC 2998
HCT-116 = tested on: HCT-116
HCT-15 = tested on: HCT-15
HL-60 = tested on: HL-60
HOP-62 = tested on: HOP-62
HOP-92 = tested on: HOP-92
HT-29 = tested on: HT-29
IGROV-1 = tested on: IGROV-1
K562 = tested on: K562
KM12 = tested on: KM12
LOX IMVI = tested on: LOX IMVI
M14 = tested on: M14
MCF7 = tested on: MCF7
MDA-MB-231 = tested on: MDA-MB-231
MDA-MB-435 = tested on: MDA-MB-435
MDA-N = tested on: MDA-N
MOLT-4 = tested on: MOLT-4
Malme-3M = tested on: Malme-3M
NCI-H226 = tested on: NCI-H226
NCI-H23 = tested on: NCI-H23
NCI-H460 = tested on: NCI-H460
NCI-H522 = tested on: NCI-H522
NCI/ADR-RES = tested on: NCI/ADR-RES
OVCAR-3 = tested on: OVCAR-3
OVCAR-4 = tested on: OVCAR-4
OVCAR-5 = tested on: OVCAR-5
OVCAR-8 = tested on: OVCAR-8
PC-3 = tested on: PC-3
RXF 393 = tested on: RXF 393
SF-268 = tested on: SF-268
SF-295 = tested on: SF-295
SF-539 = tested on: SF-539
SK-MEL-28 = tested on: SK-MEL-28
SK-MEL-2 = tested on: SK-MEL-2
SK-MEL-5 = tested on: SK-MEL-5
SK-OV-3 = tested on: SK-OV-3
SN12C = tested on: SN12C
SNB-19 = tested on: SNB-19
SNB-75 = tested on: SNB-75
SR = tested on: SR
SW-620 = tested on: SW-620
T47D = tested on: T47D
TK-10 = tested on: TK-10
U-251 = tested on: U-251
UACC-257 = tested on: UACC-257
UACC-62 = tested on: UACC-62
UO-31 = tested on: UO-31
BT-549 = tested on: BT-549
CAKI-1 = tested on: CAKI-1
Hs-578T = tested on: Hs-578T
RPMI-8226 = tested on: RPMI-8226

Measured: GI50

CCc1c(C)c(C#N)c(=S)n(C2OC(CO)C(O)C(O)C2O)c1C (stereo not drawn)
> 100 µM: HCT-15
inactive: 786-0 > 100 µM | A498 > 100 µM | A549 > 100 µM | ACHN > 100 µM | CCRF-CEM > 100 µM | COLO 205 > 100 µM | DU-145 > 100 µM | EKVX > 100 µM | HCC 2998 > 100 µM | HCT-116 > 100 µM | HL-60 > 100 µM | HOP-62 > 100 µM | HOP-92 > 100 µM | HT-29 > 100 µM | IGROV-1 > 100 µM | K562 > 100 µM | KM12 > 100 µM | LOX IMVI > 100 µM | M14 > 100 µM | MCF7 > 100 µM | MDA-MB-231 > 100 µM | MDA-MB-435 > 100 µM | MDA-N > 100 µM | MOLT-4 > 100 µM | Malme-3M > 100 µM | NCI-H226 > 100 µM | NCI-H23 > 100 µM | NCI-H460 > 100 µM | NCI-H522 > 100 µM | NCI/ADR-RES > 100 µM | OVCAR-3 > 100 µM | OVCAR-4 > 100 µM | OVCAR-5 > 100 µM | OVCAR-8 > 100 µM | PC-3 > 100 µM | RXF 393 > 100 µM | SF-268 > 100 µM | SF-295 > 100 µM | SF-539 > 100 µM | SK-MEL-28 > 100 µM | SK-MEL-2 > 100 µM | SK-MEL-5 > 100 µM | SK-OV-3 > 100 µM | SN12C > 100 µM | SNB-19 > 100 µM | SNB-75 65.2 µM | SR > 100 µM | SW-620 > 100 µM | T47D > 100 µM | TK-10 > 100 µM | U-251 > 100 µM | UACC-257 > 100 µM | UACC-62 > 100 µM | UO-31 > 100 µM

Nc1nc(Cl)c2ncn(Cc3cccc(CCl)c3)c2n1
inactive: 786-0 5.37 µM | A498 25 µM | A549 13.2 µM | ACHN 3.45 µM | BT-549 4.09 µM | CAKI-1 1.23 µM | CCRF-CEM 3.18 µM | COLO 205 8.38 µM | DU-145 6.03 µM | EKVX 8.97 µM | HCC 2998 3.03 µM | HCT-116 2 µM | HL-60 3.95 µM | HOP-62 2.84 µM | HOP-92 1.64 µM | HT-29 3.87 µM | Hs-578T 7.03 µM | IGROV-1 3.31 µM | K562 4.38 µM | KM12 4.53 µM | LOX IMVI 3.33 µM | M14 3.66 µM | MCF7 5.35 µM | MDA-MB-231 11 µM | MDA-MB-435 6.73 µM | MOLT-4 3.6 µM | Malme-3M 5.81 µM | NCI-H226 6.28 µM | NCI-H23 1.87 µM | NCI-H460 3.87 µM | NCI-H522 2.4 µM | NCI/ADR-RES 3.47 µM | OVCAR-3 1.33 µM | OVCAR-4 2.13 µM | OVCAR-5 9.16 µM | OVCAR-8 3.24 µM | PC-3 10.2 µM | RPMI-8226 2.57 µM | RXF 393 2.61 µM | SF-268 5.09 µM | SF-295 7.01 µM | SF-539 5.24 µM | SK-MEL-28 5.28 µM | SK-MEL-2 12.1 µM | SK-MEL-5 5.7 µM | SK-OV-3 20 µM | SN12C 8.05 µM | SNB-19 5.89 µM | SNB-75 9.75 µM | SR 1.74 µM | SW-620 3.61 µM | T47D 7.36 µM | TK-10 6.31 µM | U-251 2.17 µM | UACC-257 6.01 µM | UACC-62 4.16 µM | UO-31 13.4 µM
2.12 µM: HCT-15

Reference: ChEMBL document CHEMBL1201862, “PubChem BioAssay data set” (2004)
